In experiment [1] the target is T1, 5-hydroxytryptamine receptor 2C (Homo sapiens, UniProt P28335).
T1 sequence (P28335 whole entry): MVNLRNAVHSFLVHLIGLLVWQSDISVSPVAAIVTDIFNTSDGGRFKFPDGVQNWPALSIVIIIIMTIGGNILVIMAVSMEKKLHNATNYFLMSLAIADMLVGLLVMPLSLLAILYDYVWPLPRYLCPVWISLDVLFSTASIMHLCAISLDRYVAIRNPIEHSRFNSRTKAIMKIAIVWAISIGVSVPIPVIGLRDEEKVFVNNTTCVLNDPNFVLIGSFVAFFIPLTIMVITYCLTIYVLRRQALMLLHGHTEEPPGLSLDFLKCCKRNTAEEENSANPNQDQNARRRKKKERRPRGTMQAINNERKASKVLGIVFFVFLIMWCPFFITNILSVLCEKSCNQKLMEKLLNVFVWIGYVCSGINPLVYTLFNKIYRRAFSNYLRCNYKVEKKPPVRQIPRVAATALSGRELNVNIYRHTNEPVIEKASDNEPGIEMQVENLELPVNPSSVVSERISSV
Nature of the experiment: Binding affinity at 5-HT2C receptor by radioligand displacement assay. (Displacement assays read how much labelled ligand stays bound in the presence of the test substance.)

The target in experiment [2] is 5-hydroxytryptamine receptor 2A (Homo sapiens, UniProt P28223). Nature of the experiment: Binding affinity at 5-HT2A receptor by radioligand displacement assay.
Sequence of 5-hydroxytryptamine receptor 2A (P28223 whole entry): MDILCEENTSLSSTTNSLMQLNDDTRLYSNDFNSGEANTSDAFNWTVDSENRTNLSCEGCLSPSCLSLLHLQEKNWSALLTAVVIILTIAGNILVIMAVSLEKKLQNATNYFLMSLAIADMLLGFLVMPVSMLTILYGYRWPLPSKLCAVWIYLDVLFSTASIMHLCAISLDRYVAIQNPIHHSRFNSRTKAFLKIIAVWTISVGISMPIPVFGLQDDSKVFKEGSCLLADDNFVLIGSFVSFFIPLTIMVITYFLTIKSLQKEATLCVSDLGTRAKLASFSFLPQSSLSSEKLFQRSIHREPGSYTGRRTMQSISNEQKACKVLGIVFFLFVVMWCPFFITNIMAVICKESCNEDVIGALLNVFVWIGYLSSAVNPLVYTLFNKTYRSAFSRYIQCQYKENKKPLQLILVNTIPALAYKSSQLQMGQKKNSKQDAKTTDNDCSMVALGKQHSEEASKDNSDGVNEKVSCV
Experiment [3] has as its target Histamine H1 receptor (Homo sapiens, UniProt P35367). Nature of the experiment: Displacement of [3H]-Pyrilamine from human histamine H1 receptor by liquid scintillation counter.
Experiment [4] deals with D(3) dopamine receptor (Homo sapiens, UniProt P35462). The experiment in a line: Displacement of [3H]-N-methylspiperone from dopamine D3 receptor expressed in […] MES-23.5.
Sequence of D(3) dopamine receptor (P35462 whole entry): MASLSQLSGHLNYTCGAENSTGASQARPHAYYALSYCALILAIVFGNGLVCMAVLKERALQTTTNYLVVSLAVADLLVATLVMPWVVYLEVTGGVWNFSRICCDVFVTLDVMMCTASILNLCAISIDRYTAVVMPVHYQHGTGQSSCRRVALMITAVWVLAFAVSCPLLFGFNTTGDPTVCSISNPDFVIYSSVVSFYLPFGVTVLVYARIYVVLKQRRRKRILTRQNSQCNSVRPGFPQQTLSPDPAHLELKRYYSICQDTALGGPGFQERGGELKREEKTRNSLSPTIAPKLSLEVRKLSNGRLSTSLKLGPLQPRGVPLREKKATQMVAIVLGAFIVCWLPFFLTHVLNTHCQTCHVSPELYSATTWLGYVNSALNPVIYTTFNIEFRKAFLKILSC
The target in experiment [5] is D(2) dopamine receptor (Homo sapiens, UniProt P14416). Nature of the experiment: Displacement of [3H]-N-methylspiperone from dopamine D2 receptor expressed in […] MES-23.5 cells. Type of experiment: cell-based.
Sequence of D(2) dopamine receptor (P14416 whole entry): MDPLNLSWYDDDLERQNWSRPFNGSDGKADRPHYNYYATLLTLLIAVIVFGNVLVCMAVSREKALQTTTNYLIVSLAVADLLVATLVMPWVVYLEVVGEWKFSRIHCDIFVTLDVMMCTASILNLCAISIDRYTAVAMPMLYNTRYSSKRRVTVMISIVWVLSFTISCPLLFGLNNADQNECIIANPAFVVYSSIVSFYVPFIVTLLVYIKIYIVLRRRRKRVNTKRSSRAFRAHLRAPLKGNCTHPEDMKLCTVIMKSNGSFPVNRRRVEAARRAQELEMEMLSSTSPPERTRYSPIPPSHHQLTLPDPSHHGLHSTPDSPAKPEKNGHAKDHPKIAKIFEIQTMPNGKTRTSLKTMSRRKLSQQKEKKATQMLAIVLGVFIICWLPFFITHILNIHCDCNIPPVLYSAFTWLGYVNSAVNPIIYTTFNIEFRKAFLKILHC
Experiment [6] has as its target T2, D(4) dopamine receptor (Rattus norvegicus, UniProt P30729).
T2 sequence (P30729 whole entry): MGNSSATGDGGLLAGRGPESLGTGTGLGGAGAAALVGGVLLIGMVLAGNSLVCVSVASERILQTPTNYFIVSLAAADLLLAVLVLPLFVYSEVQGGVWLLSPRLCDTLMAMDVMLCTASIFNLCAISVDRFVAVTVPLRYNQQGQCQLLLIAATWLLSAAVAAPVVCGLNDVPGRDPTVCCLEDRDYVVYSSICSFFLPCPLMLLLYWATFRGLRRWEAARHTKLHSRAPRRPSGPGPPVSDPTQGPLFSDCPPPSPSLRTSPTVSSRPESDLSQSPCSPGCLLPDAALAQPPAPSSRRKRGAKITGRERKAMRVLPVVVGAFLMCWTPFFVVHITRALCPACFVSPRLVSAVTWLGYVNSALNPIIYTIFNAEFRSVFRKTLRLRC
Nature of the experiment: Displacement of [3H]-N-methylspiperone from rat dopamine D4 receptor.

Experiment [7] has as its target T3, 5-hydroxytryptamine receptor 1A (Homo sapiens, UniProt P08908).
T3 sequence (P08908 whole entry): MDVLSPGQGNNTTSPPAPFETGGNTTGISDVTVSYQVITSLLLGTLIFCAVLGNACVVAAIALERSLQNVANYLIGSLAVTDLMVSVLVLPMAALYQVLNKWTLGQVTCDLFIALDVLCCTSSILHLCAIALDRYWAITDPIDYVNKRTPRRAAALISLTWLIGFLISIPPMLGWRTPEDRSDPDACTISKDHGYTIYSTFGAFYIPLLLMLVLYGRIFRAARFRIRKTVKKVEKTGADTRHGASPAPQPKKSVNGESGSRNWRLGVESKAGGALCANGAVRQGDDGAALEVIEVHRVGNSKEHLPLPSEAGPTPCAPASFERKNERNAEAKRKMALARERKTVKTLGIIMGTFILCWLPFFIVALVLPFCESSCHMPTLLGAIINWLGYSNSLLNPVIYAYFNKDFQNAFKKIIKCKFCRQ
The experiment in a line: Displacement of [3H]8-OH-DPAT from 5-HT1A receptor expressed in CHO cells after 20 mins by liquid scintillation counting. Type of experiment: cell-based.

Structures are written as SMILES.

For 10 compounds, Ki results are on record in ChEMBL document CHEMBL1944557 (Bioorg Med Chem, 2012).

Sequence of Histamine H1 receptor (P35367 whole entry): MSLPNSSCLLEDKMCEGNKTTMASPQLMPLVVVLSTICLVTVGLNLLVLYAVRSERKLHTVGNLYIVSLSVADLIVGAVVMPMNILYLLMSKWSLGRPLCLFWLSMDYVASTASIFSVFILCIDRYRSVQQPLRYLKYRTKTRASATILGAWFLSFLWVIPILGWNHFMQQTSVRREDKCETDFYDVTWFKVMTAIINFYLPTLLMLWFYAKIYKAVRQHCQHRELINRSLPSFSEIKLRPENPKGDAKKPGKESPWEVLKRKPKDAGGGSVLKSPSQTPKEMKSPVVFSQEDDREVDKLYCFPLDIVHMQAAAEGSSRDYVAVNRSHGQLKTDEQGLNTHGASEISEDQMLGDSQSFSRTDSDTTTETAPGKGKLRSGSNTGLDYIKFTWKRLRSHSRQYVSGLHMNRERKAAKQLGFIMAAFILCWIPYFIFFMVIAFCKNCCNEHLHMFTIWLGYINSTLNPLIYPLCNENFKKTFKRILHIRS

For `OC1(c2ccc(Cl)cc2)C[C@H]2CC[C@@H](C1)N2CCCOc1ccc(F)cc1` (stereo partly specified), the Ki – broadly, a measure of affinity in units of concentration, obtained from inhibition or displacement – in experiment [1] is given as “Not Active”.
On to `Fc1ccc(SCCCN2CCCN(c3ccc(Cl)cc3)CC2)cc1`, for which the inhibition constant Ki in experiment [2] (read-out: Ki) was 163 nM; in experiment [3] (read-out: Ki), 800 nM; in experiment [1] (read-out: Ki), 2530 nM.
As to `Fc1ccc(OCCCN2CCCN(c3ccc(Cl)cc3)CC2)cc1`, the Ki in experiment [2] (read-out: Ki) is 567 nM; in experiment [3] (read-out: Ki) it was 509 nM; in experiment [1] (read-out: Ki) it was over 10000 nM.
On to `Fc1ccc(CCCCN2CCCN(c3ccc(Cl)cc3)CC2)cc1`, for which the Ki in experiment [2] (read-out: Ki) stood at 510 nM; in experiment [3] (read-out: Ki) it was 1250 nM; in experiment [4], 3040 nM; in experiment [1] (read-out: Ki), 4100 nM; in experiment [5] (read-out: Ki), 139 nM; in experiment [6], 123 nM.
For `Clc1ccc(N2CCCN(CCCCc3nc4ccccc4s3)CC2)cc1`, the inhibition constant (Ki) in experiment [2] (read-out: Ki) was 159 nM; in experiment [3] (read-out: Ki) it was 61 nM; in experiment [7] (read-out: Ki), 263 nM; in experiment [4], 152 nM; in experiment [1] (read-out: Ki), 1420 nM; in experiment [5] (read-out: Ki), 259 nM. Further, in experiment [6], the affinity, expressed as Ki, was 28.6 nM.
`Clc1ccc(N2CCCN(CCCc3nc4ccccc4s3)CC2)cc1`: the inhibition constant (Ki) was 696 nM in experiment [2] (read-out: Ki); 665 nM in experiment [3] (read-out: Ki); 216 nM in experiment [7] (read-out: Ki); 863 nM in experiment [4]; “Not Active” in experiment [5]; 431 nM in experiment [6].
Regarding `Clc1ccc(N2CCCN(Cc3nc4ccccc4s3)CC2)cc1`, the Ki entry in experiment [2], in experiment [3], in experiment [7] (cho) and in experiment [1] was “Not Active” throughout.
In the case of `O=C(CCCCN1CCCN(c2ccc(Cl)cc2)CC1)c1nc2ccccc2s1`, the inhibition constant (Ki) in experiment [2] (read-out: Ki) was found to be 1000 nM; in experiment [3] (read-out: Ki) it was 129 nM; in experiment [7] (read-out: Ki), 495 nM; in experiment [4], 1050 nM; in experiment [1] (read-out: Ki) it was 5920 nM; in experiment [5] (read-out: Ki) it was 1980 nM. In experiment [6], the affinity corresponds to a Ki of 1210 nM.
`O=C(CCCN1CCCN(c2ccc(Cl)cc2)CC1)c1nc2ccccc2s1`: the Ki was 1040 nM in experiment [2] (read-out: Ki); “Not Active” in experiment [7] (cho); 777 nM in experiment [4]; “Not Active” in experiment [1]; “Not Active” in experiment [5]; 126 nM in experiment [6].
Take `O=C(CCCCN1[C@@H]2CC[C@H]1CC(O)(c1ccc(Cl)cc1)C2)c1nc2ccccc2s1` (stereo partly specified): the Ki result in experiment [2], in experiment [7] (cho) and in experiment [1] was “Not Active” each time.
